Test results reported in US11279702B2, “AMPK activators” (Kallyope, Inc., priority 2020, dated 2022).

Assays:
[1] = system: Madin-Darby Canine Kidney (MDCK) cells; assay: In vitro MDCK epithelial permeability assay (FITC-dextran, calcium switch); assay type: cell-based; conditions: low calcium medium, MDCK monolayers
Text: In order to quantitatively measure the effects of transporter substrate AMPK activators on epithelial permeability in vitro, standard calcium switch protocols from the literature were adapted for use with Madin-Darby Canine Kidney (MDCK) cells grown on Corning Transwell inserts for use with fluorescein isothiocyanate-dextran, average molecular weight 4 kDa (FITC-dextran). FITC-dextran is a large, metabolically inert sugar molecule that is not readily transferrable across healthy epithelial barriers in vitro or in vivo. This compound has been tagged with a fluorophore to easily track its movement.
Briefly, MDCK cells were seeded onto Transwell inserts and grown according to manufacturer instructions until confluent. On the day of the experiment, a baseline reading was taken in standard growth media in which FITC-dextran was spiked into the apical chamber and the percent permeation of FITC-dextran from the apical to the basolateral chamber was measured. The inserts were then washed in low calcium medium (LCM) containing either vehicle or compound to remove residual FITC-dextran and calcium, and FITC-dextran was once again spiked into the apical chamber and the percent permeation in LCM was measured. Values were determined by reading fluorescence intensity on a standard plate reader and calculated by fitting back to 12-point standard curve in either growth media or LCM+vehicle, respectively. The fold induction of FITC-dextran permeation to the basolateral chamber when each well was transferred from baseline growth media to LCM was then calculated.

MDCK cells = assay: Effects on tight junction (TJ) architecture, ZO-1 staining; assay type: cell-based; conditions: 10 μM, low calcium medium (LCM)
Method: MDCK cells were grown to confluence on Transwell inserts in standard growth media. The inserts were then washed and incubated in low calcium medium (LCM) with vehicle or compound (10 μM) and fixed with paraformaldehyde. Fixed cells were stained for tight junction (TJ) component proteins using commercially available antibodies and visualized on a confocal microscope (Model DM6, Leica Microsystems). As shown by zona occludens-1 (ZO-1) staining, confluent epithelial cell monolayers in standard growth media display well-organized TJs that allow the cells to form a tight seal with their neighbors, while LCM induces autonomous internalization of TJ proteins into the cytoplasm and therefore compromises the barrier function of the epithelial monolayer.

[2] = biological target: Recombinant AMPK α1/β1/γ1 complex (Homo sapiens (Human), UniProt Q13131+Q9Y478); assay: In vitro pAMPK1 kinase activation assay (ADP-Glo, SAMS peptide); assay type: biochemical; conditions: at 10 μM
BCRP = BCRP (Homo sapiens (Human), UniProt Q9UNQ0); assay: in vitro; assay type: in vitro ADME; conditions: for efflux transporter substrate assessment: Caco-2; for Efflux Ratio / Mean Papp (10^−6 cm/s) B to A / Mean Recovery (%) A to B / Mean Recovery (%) B to A / Papp B→A at 2 h, 2 μM / recovery at 2 h, 2 μM: human; for Efflux Ratio / Mean Papp (10^−6 cm/s) B to A / Mean Recovery (%) A to B / Mean Recovery (%) B to A: Caco-2, 2 h, 2 μM, pH 7.4; for Papp B→A at 2 h, 2 μM: Caco-2, pH 7.4, Mean Papp (10^−6 cm/s) B to A
Method: Caco-2 cells purchased from ATCC were seeded onto […] (PET) in 96-well BD Insert plates at 1×10^5 cells/cm^2, and refreshed medium every 4-5 days until to the 21st to 28th day for confluent cell monolayer formation. The transport buffer in the study was HBSS with 10 mM HEPES at pH 7.40±0.05. Compounds were tested at 2 μM in the presence or absence of 30 μM novobiocin bi-directionally in duplicate. E3S was tested at 5 μM in the presence or absence of 30 μM novobiocin bi-directionally in duplicate, while nadolol and metoprolol were tested at 2 μM in the absence of novobiocin in A to B direction in duplicate. Final DMSO concentration was adjusted to less than 1%. The plate was incubated for 2 hours in CO2 incubator at 37+1° C., with 5% CO2 at saturated humidity without shaking. All samples were mixed with acetonitrile containing internal standard and were centrifuged at 4000 rpm for 10 min. Subsequently, 100 μL supernatant solution was diluted with 100 μL distilled water for LC/MS/MS analysis. Concentrations of test and control compounds in starting solution, donor solution, and receiver solution were quantified by LC/MS/MS, using peak area ratio of analyte/internal standard.

[3] = Pharmacokinetics (oral bioavailability, IV parameters); conditions: mouse, in vivo, C57BL/6 mice; for bioavailability: IV 1 mg/kg, PO 30 mg/kg; for half-life / Vd: IV administration 1 mg/kg; for Vd: read-out: volume of distribution
Method: Compounds were tested for pharmacokinetics in C57BL/6 mice. Compounds 2, 4, and A1 were dosed IV at 1 mg/kg as a formulation of 0.5 mg/mL in 5% DMSO+30% PEG400+65% water and PO at 30 mg/kg as a formulation of 6 mg/mL in 0.25% MC+5% Tween 80+0.02% SDS. Compound 1 was dosed IV at 1 mg/kg as a formulation of 0.50 mg/mL in 5% DMSO+30% PEG400+65% water and PO at 30 mg/kg as a formulation of 6 mg/mL in 0.5% MC+0.5% Tween 80.

[4] = system: Mouse In Vivo Acute Dextran Sulfate Sodium (DSS) Colitis Model; assay: Intestinal barrier function in acute DSS colitis model (FITC-dextran); parameters: species or system C57Bl/6 mice
Method: Vehicle or a dose of Compound A1 or Compound 1 was administered once daily by oral gavage to C57Bl/6 mice. After 3 days of pre-dosing, dextran sulfate sodium (DSS) was simultaneously administered at 2.5-3% in drinking water, and appropriate water-only controls were included.
After 6 days of DSS administration, animals treated with Compound A1 were switched back to their regular water source and a 24-hour wash-out of both DSS and compound was provided. The animals were fasted on the morning of take-down and administered a single oral bolus dose of FITC-dextran. The animals were sacrificed by cardiac puncture 4 hours after administration and plasma was collected. The concentration of FITC-dextran present in plasma was determined by measuring fluorescence intensity on a standard plate reader, and fitting values back to a standard curve.
After 7 days of DSS administration, animals treated with Compound 1 were switched back to their regular water source and the animals were administered a single oral bolus dose of FITC-dextran (FD) four hours prior to necropsy. The animals were sacrificed by cardiac puncture and serum was collected. The concentration of FITC-dextran present in serum was determined by measuring fluorescence intensity on a standard plate reader, and fitting values back to a standard curve.

[5] = Caco-2, pH 7.4, Mean Recovery (%) A to B
[6] = Caco-2, pH 7.4, Mean Recovery (%) B to A

Sequence of BCRP (Q9UNQ0 whole entry): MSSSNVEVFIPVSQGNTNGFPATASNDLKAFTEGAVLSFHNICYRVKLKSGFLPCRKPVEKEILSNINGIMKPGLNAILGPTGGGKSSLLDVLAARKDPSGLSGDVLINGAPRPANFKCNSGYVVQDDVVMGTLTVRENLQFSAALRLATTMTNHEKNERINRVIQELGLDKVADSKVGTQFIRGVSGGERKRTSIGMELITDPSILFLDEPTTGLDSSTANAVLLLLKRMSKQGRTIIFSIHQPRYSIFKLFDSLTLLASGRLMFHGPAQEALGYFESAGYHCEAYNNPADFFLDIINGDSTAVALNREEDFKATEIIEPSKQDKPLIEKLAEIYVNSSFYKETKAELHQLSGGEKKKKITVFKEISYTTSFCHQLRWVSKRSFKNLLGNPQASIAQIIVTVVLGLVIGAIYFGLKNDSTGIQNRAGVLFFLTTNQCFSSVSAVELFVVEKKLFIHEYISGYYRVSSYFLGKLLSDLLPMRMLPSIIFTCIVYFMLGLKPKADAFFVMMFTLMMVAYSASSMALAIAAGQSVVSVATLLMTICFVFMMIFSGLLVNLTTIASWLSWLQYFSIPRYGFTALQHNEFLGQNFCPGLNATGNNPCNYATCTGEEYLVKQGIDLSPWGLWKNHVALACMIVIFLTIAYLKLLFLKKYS
Sequence of Recombinant AMPK α1/β1/γ1 complex (Q13131 whole entry): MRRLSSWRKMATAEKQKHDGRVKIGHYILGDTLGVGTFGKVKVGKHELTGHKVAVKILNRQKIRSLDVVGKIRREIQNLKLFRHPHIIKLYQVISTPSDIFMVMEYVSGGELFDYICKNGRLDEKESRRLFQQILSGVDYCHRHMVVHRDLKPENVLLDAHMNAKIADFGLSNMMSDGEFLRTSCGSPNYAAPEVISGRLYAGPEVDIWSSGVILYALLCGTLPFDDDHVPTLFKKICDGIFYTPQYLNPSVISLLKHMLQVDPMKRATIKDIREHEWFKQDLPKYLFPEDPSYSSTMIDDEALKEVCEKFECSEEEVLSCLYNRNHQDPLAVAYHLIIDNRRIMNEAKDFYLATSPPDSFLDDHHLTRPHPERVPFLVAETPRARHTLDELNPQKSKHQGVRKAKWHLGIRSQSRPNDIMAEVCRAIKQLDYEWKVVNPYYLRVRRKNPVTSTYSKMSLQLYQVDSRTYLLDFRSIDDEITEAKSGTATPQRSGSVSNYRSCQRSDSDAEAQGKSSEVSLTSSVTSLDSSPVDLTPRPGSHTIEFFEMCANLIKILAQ
Sequence of Recombinant AMPK α1/β1/γ1 complex (Q9Y478 whole entry): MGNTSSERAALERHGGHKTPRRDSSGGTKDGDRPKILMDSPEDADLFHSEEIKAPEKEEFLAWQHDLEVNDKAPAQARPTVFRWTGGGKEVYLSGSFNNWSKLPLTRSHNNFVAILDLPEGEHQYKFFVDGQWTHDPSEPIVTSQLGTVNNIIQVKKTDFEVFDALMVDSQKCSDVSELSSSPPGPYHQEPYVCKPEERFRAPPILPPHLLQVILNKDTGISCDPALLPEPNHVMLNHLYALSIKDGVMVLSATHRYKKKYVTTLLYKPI
Sequence of Recombinant AMPK α1/β1/γ1 complex (P54619 whole entry partner): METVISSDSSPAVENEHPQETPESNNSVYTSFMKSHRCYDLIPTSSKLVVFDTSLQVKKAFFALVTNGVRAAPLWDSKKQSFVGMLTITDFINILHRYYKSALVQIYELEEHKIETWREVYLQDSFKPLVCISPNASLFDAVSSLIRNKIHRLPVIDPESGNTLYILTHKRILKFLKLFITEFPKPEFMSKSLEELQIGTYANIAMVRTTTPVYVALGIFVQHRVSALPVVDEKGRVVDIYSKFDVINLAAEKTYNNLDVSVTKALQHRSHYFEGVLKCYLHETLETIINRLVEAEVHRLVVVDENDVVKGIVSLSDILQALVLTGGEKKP

## O=C(O)CSc1nc2cc(-c3ccc(-c4ccccc4O)cc3)c(Cl)cc2[nH]1 [Compound A1]
[1]; 0.1 μM
  reduction of FITC-dextran permeation relative to vehicle: 40%
[1]; 1 μM
  reduction of FITC-dextran permeation relative to vehicle: 61%
MDCK cells
  TJ architecture by zona occludens-1 (ZO-1) staining: prevented the loss of TJ architecture
[2]
  activation compared with AMP: activation greater than that displayed by AMP
BCRP
  efflux transporter substrate assessment: likely substrates of intestinal efflux transporters
  Efflux Ratio: 55.54
  Mean Papp (10^−6 cm/s) B to A: 9.16 10^−6 cm/s
  Mean Recovery (%) A to B: 61.16%
  Mean Recovery (%) B to A: 78.94%
  Papp B→A at 2 h, 2 μM: 17.1 ×10⁻⁶ cm/s
BCRP; [5]
  recovery at 2 h, 2 μM: < 65.6%
BCRP; [6]
  recovery at 2 h, 2 μM: 77.4%
[3]
  bioavailability: < 1%
  half-life: 4.8 h
  Vd: 2.4 L/kg
[4]; 30 mg/kg PO once daily, plasma, 6 days DSS then 24-hour wash-out
  Change in Fluorescence Intensity vs. Vehicle: −60%

## O=C(O)CSc1nc2nc(-c3ccc(-c4ccccc4O)cc3)c(Cl)cc2[nH]1 [Compound 1, 2-((6-chloro-5-(2′-hydroxy-[1,1′-biphenyl]-4-yl)-1H-imidazo[4,5-b]pyridin-2-yl)thio)acetic Acid]
[1]; 0.1 μM
  reduction of FITC-dextran permeation relative to vehicle: 48%
[1]; 1 μM
  reduction of FITC-dextran permeation relative to vehicle: 62%
MDCK cells
  TJ architecture by zona occludens-1 (ZO-1) staining: prevented the loss of TJ architecture
[2]
  activation compared with AMP: activation greater than that displayed by AMP
BCRP
  efflux transporter substrate assessment: likely substrates of intestinal efflux transporters
  Efflux Ratio: 44.89
  Mean Papp (10^−6 cm/s) B to A: 6.98 10^−6 cm/s
  Mean Recovery (%) A to B: 69.40%
  Mean Recovery (%) B to A: 82.75%
  Papp B→A at 2 h, 2 μM: 12.7 ×10⁻⁶ cm/s
BCRP; [5]
  recovery at 2 h, 2 μM: < 68.8%
BCRP; [6]
  recovery at 2 h, 2 μM: 79.5%
[3]
  bioavailability: < 1%
  half-life: 1.9 h
  Vd: 0.7 L/kg
[4]; 3 mg/kg PO once daily, serum, 7 days DSS
  Change in Fluorescence Intensity vs. Vehicle: −35%
[4]; 10 mg/kg PO once daily, serum, 7 days DSS
  Change in Fluorescence Intensity vs. Vehicle: −69%
[4]; 30 mg/kg PO once daily, serum, 7 days DSS
  Change in Fluorescence Intensity vs. Vehicle: −80%
[4]; 100 mg/kg PO once daily, serum, 7 days DSS
  Change in Fluorescence Intensity vs. Vehicle: −96%
